≈ marks a conversion by molar mass, not a printed value.
How the values were obtained:
Format in all cases: cell-based
[1] = system: C. albicans GDH2346 hyphal biofilm; assay: Candida IC50 in the hyphal state / hyphal biofilm, MTS viability assay; conditions: 2-day hyphal biofilm cultures; for IC50: Candida albicans, 48 h, read-out: Anti-C. albicans GDH2346 Hyphal (IC50)
Protocol: Candida IC50s were determined by OD600 and fluorescence from vegetative cells and by MTS viability assay in the hyphal state. MICs were determined using a broth microdilution assay under standard CLSI conditions Bacteria strains: E. coli 25922 (EC), S. aureus 27660 (SA), E. faecalis 29212 (EF), P. aeruginosa 10145 (PA), and K. pneumoniae 13883 (KP). Cytotoxicity (EC50) was determined against mouse 3T3 fibroblasts, human transformed liver HepG2 cells, and human oral keratinocyte cell line, OKF6/TERT using an MTS viability assay. Candida IC50s<10 μg/mL, MICs<5 μg/mL and cytotoxicity EC50s>100 μM are indicated in green. MICs>5 μg/mL and cytotoxicity EC50s<100 μM are indicated in red. To form the biofilm, yeast were grown in RPMI/MOPS, 0.4% sucrose pH7.4 media supplemented with 10% FBS in tissue culture-treated flat bottom 96 well plates for 48 hours. The filamentous yeast cultures were then vigorously washed to remove any non-filamentous, non-attached yeast. The remaining attached filamentous biofilm yeast were incubated in saline containing serially diluted compounds for 24 hours. The cultures were aspirated to remove compound, rinsed and overlayed with RPMI/MOPS, 0.4% sucrose pH7.4 media. Biofilm viability was measured using a cell proliferation assay (CellTiter96 Aqueous Kit from Promega) and IC50s were determined using Prism GraphPad software (nonlinear fit, Table 3).

[2] = system: C. albicans GDH2346; assay: Candida IC50, vegetative cells, by OD600 and fluorescence; conditions: vegetative cultures; for IC50: Candida albicans, GDH2346, read-out: Anti-C. albicans GDH2346 Vegetative (IC50)
Protocol: Candida IC50s were determined by OD600 and fluorescence from vegetative cells and by MTS viability assay in the hyphal state. MICs were determined using a broth microdilution assay under standard CLSI conditions Bacteria strains: E. coli 25922 (EC), S. aureus 27660 (SA), E. faecalis 29212 (EF), P. aeruginosa 10145 (PA), and K. pneumoniae 13883 (KP). Cytotoxicity (EC50) was determined against mouse 3T3 fibroblasts, human transformed liver HepG2 cells, and human oral keratinocyte cell line, OKF6/TERT using an MTS viability assay. Candida IC50s<10 μg/mL, MICs<5 μg/mL and cytotoxicity EC50s>100 μM are indicated in green. MICs>5 μg/mL and cytotoxicity EC50s<100 μM are indicated in red. Candida IC50s (CA) were determined by OD600 and fluorescence from vegetative cells. MICs were determined using a broth microdilution assay under standard CLSI conditions Bacteria strains: E. coli 25922 (EC), S. aureus 27660 (SA), E. faecalis 29212 (EF), P. aeruginosa 10145 (PA), and K. pneumoniae 13883 (KP). Cytotoxicity (EC50) was determined against mouse 3T3 fibroblasts and human transformed liver HepG2 cells using an MTS viability assay. For determination of anti-Candida IC50s, the method was modified by using RPMI/MOPS buffer pH 6.3 and by addition of FDGlu, a substrate for the yeast enzyme exoglucanase which is secreted during cell growth. This provides a fluorescent readout for cell growth which was used in addition to the traditional optical density measure of growth. OD600 and fluorescence were determined at 24 and 48 hours and the average of all 4 reads was used for the final IC50 determination.

[3] = system: S. salivarius; assay: Commensal bacteria MIC, broth microdilution; conditions: for MIC: Streptococcus salivarius
Protocol: (§1) Bacterial MICs were determined using a broth microdilution assay under standard
(§2) CLSI conditions Bacteria strains: clinical isolates; yeast strains: C. dubliniensis (NCPF3949), C. glabrata (ATCC 90030), C. krusei (ATCC 6258), C. parapsilosis (ATCC 22019), and C. tropicalis (ATCC 750). Cytotoxicity (EC50) was determined against mouse 3T3 fibroblasts, human transformed liver HepG2 cells, and human oral keratinocyte cell line, OKF6/TERT using an MTS viability assay.

[4] = system: A. viscosis; assay: Commensal bacteria MIC, broth microdilution
Protocol: as §1, §2

[5] = system: C. krusei (ATCC 6258); assay: Yeast MIC; conditions: for MIC: Pichia kudriavzevii, ATCC6258
Protocol: (§3) Candida MIC assays were determined in accordance with CLSI guidelines M27-A3 using a clinically isolated C. albicans strain, GDH2346.50% human serum was added to determine activity in the presence of serum.
as §2

[6] = system: C. parapsilosis (ATCC 22019); assay: Yeast MIC; conditions: for MIC: Lodderomyces parapsilosis, ATCC22019
Protocol: as §3, §2

[7] = system: C. tropicalis (ATCC 750); assay: Yeast MIC; conditions: for MIC: Candida tropicalis, ATCC750
Protocol: as §3, §2

[8] = system: C. dubliniensis (NCPF3949); assay: Yeast MIC; conditions: Table 5; for MIC: Candida dubliniensis, NCPF3949, read-out: MIC C. dubliniensis
Protocol: as §3, §2

[9] = system: C. glabrata (ATCC 90030); assay: Yeast MIC; conditions: Table 5; for MIC: Nakaseomyces glabratus, ATCC90030, read-out: MIC C. glabrata
Protocol: as §3, §2

[10] = system: C. albicans GDH2346; assay: Candida MIC, CLSI M27-A3; conditions: Table 5; for MIC: Candida albicans, GDH2346, read-out: MIC C. albicans
Protocol: as §3

| Compound | IC50 [1] | IC50 [2] | MIC [3] | MIC [4] | MIC [5] | MIC [6] | MIC [7] | MIC [8] | MIC [9] | MIC [10] | MIC S. salivarius [3] | MIC A. viscosis [4] | Anti-C. albicans GDH2346 Vegetative (IC50) [2] | MIC C. krusei [5] | MIC C. parapsilosis [6] | MIC C. tropicalis [7] | MIC C. dubliniensis [8] | MIC C. glabrata [9] | MIC C. albicans [10] | Anti-C. albicans GDH2346 Hyphal (IC50) [1] |
| --- | --- | --- | --- | --- | --- | --- | --- | --- | --- | --- | --- | --- | --- | --- | --- | --- | --- | --- | --- | --- |
| NCCc1cc(Br)cc(C#Cc2cccc(C#Cc3cc(Br)cc(CCN)c3)c2)c1 [Compound 164] | 11 µg/mL (≈ 21.1 µM) | 4.88 µg/mL (≈ 9.34 µM) |  |  |  |  |  |  |  |  |  |  |  |  |  |  |  |  |  |  |
| N=C(N)NCCc1cccc(-c2ccc(-c3cccc(CCNC(=N)N)c3)s2)c1 [Compound 185] | 1 µg/mL (≈ 2.46 µM) | 1.09 µg/mL (≈ 2.68 µM) | 8 µg/mL (≈ 19.7 µM) | 4 µg/mL (≈ 9.84 µM) | 2 µg/mL (≈ 4.92 µM) | 2 µg/mL (≈ 4.92 µM) | 0.5 µg/mL (≈ 1.23 µM) | 2 µg/mL (≈ 4.92 µM) | 2 µg/mL (≈ 4.92 µM) | 2 µg/mL (≈ 4.92 µM) |  |  |  |  |  |  |  |  |  |  |
| N=C(N)NCCc1cccc(-c2ccc(-c3cccc(CCNC(=N)N)c3)cc2)c1 [Compound 186] | 1.4 µg/mL (≈ 3.5 µM) | 1.03 µg/mL (≈ 2.57 µM) | 8 µg/mL (≈ 20 µM) | 4 µg/mL (≈ 9.99 µM) | 2 µg/mL (≈ 4.99 µM) | 2 µg/mL (≈ 4.99 µM) | 0.5 µg/mL (≈ 1.25 µM) | 2 µg/mL (≈ 4.99 µM) | 2 µg/mL (≈ 4.99 µM) | 2 µg/mL (≈ 4.99 µM) |  |  |  |  |  |  |  |  |  |  |
| N=C(N)NCCc1cccc(-c2ccc(-c3cccc(CCNC(=N)N)c3)o2)c1 [Compound 187] |  |  |  |  |  |  |  |  |  |  | 32 µg/mL (≈ 81.9 µM) | 8 µg/mL (≈ 20.5 µM) | 2.20 µg/mL | 4 µg/mL (≈ 10.2 µM) | 4 µg/mL (≈ 10.2 µM) | 0.5 µg/mL (≈ 1.28 µM) | 4 µg/mL (≈ 10.2 µM) | 4 µg/mL (≈ 10.2 µM) | 2 µg/mL (≈ 5.12 µM) |  |
| N=C(N)NCCc1cccc(-c2cnc(-c3cccc(CCNC(=N)N)c3)s2)c1 [Compound 188] |  |  |  |  |  |  |  |  |  |  | 64 µg/mL (≈ 157 µM) | 16 µg/mL (≈ 39.3 µM) | 2.08 µg/mL | 4 µg/mL (≈ 9.81 µM) | 4 µg/mL (≈ 9.81 µM) | 0.5 µg/mL (≈ 1.23 µM) | 4 µg/mL (≈ 9.81 µM) | 4 µg/mL (≈ 9.81 µM) | 2 µg/mL (≈ 4.91 µM) | 2.22 µg/mL |

Reference: patent US8895561B2, “Compounds and methods for treating candidiasis and aspergillus infections” (Cellceutix Corporation, priority 2012, dated 2014)
